# Test results published in patent US9308198B2, “Treatment, prevention, and reversal of alcohol-induced brain disease” (priority 2006, dated 2016).
# Legend:
# [1] = tested on: IGF-I receptors; conditions: pup cerebellar membrane extracts, chronic gestational ethanol exposure relative to control; not dose-dependent
# Experimental: (§6) Fresh frozen tissue (˜100 mg) was homogenized in 5 volumes of NP-40 lysis buffer (50 mM Tris-HCl, pH 7.5, 1% NP-40, 150 mM NaCl, 1 mM EDTA, 2 mM EGTA) containing protease inhibitors (1 mM PMSF, 0.1 mM TPCK, 1 μg/ml aprotinin, 1 μg/ml pepstatin A, 0.5 μg/ml leupeptin, 1 mM NaF, 1 mM Na4P2O7). Protein concentrations were determined using the bicinchoninic acid (BCA) assay (Pierce, Rockford, Ill.). Exploratory studies determined the amounts of protein and concentrations of radiolabeled ligand required to achieve 20% specific binding. Insulin receptor binding assays were performed using 100 μg protein. IGF-I binding assays required 25 μg protein per sample, and IGF-II receptor binding assays were optimized using 10 μg protein. […]
# (§7) All reactions were performed in 1.5 ml Eppendorff tubes, and the incubations were performed at 4° C. for 16 hours with gentle platform agitation. […] The samples were counted for 1 minute in an LKB CompuGamma CS Gamma counter. Specific binding was calculated by subtracting fmol of non-specific binding, i.e., amount bound in the presence of cold ligand, from the total fmol bound (absence of unlabeled competitive ligand). The results were analyzed and plotted using the GraphPad Prism 4 software (GraphPad Software, Inc., San Diego, Calif.).
# [2] = tested on: acetylcholinesterase (AChE) mRNA; conditions: ethanol-exposed pup cerebellar tissue vs control
# Experimental: (§1) Total RNA was isolated from brain tissue using TRIzol reagent (Invitrogen, Carlsbad, Calif.) according to the manufacturer's protocol. RNA concentrations and purity were determined from the absorbances measured at 260 nm and 280 nm. RNA (2 μg) was reverse transcribed using the AMV First Strand cDNA synthesis kit (Roche Diagnostics Corporation, Indianapolis, Ind.) and random oligodeoxynucleotide primers. Real time quantitative RT-PCR was used to measure mRNA levels of insulin, IGF-I, and IGF-II growth factors, their corresponding receptors, neuronal (Hu), astrocytic (glial fibrillary acidic protein; GFAP), oligodendroglial (myelin-associated glycoprotein-1; MAG-1), microglial (AIF1), and endothelial (endothelin-1; ET-1) cell genes, acetyl cholinesterase (AChE), and choline acetyltransferase (ChAT). Ribosomal 18S RNA levels measured in parallel reactions were used to calculate relative abundance of the mRNA transcripts (Myers et al., Trends Biochem. Sci. 19:289 (1994); Baltensperger et al., Science 260:1950 (1993)). PCR amplifications were performed in 25 μl reactions containing cDNA generated from 2.5 ng of original RNA template, 300 nM each of gene specific forward and reverse primer (Table 1), and 12.5 μl of 2× QuantiTect SYBR Green PCR Mix (Qiagen Inc, Valencia, Calif.). […]
# [3] = tested on: choline acetyltransferase (ChAT) mRNA; conditions: ethanol-exposed pup cerebellar tissue vs control
# Experimental: as §1
# [4] = tested on: insulin receptors; conditions: pup cerebellar membrane extracts, chronic gestational ethanol exposure relative to control; not dose-dependent
# Experimental: as §6, §7
# [5] = tested on: lipid peroxidation and DNA damage in brain; conditions: rat, in vivo
# Excerpt: (§2) Male (˜200 g) Long Evans rats (Charles River Laboratories, Cambridge, Mass.) were fed isocaloric liquid diets (BioServ, Frenchtown, N.J.) in which ethanol comprised 0% or 37% of the caloric content (9.25% v/v) for 6 weeks (Yeon et al., Hepatology 38:703 (2003)). A chow fed control group was also studied. Rats were monitored daily to ensure equivalent food consumption and maintenance of body weight. Upon sacrifice, the brains were harvested and either immersion fixed in Histochoice fixative (Amresco Corp., Solon, Ohio) for paraffin embedding, or sliced fresh to micro-dissect temporal cortex, hypothalamus, and cerebellum. The fresh tissue blocks were snap frozen in a dry ice-methanol bath and stored at −80° C. for mRNA and protein studies.
# (§3) Fixed brains were sectioned in the coronal plane along standardized landmarks and embedded in paraffin. Paraffin-embedded sections (8 μm thick) were stained with hematoxylin and eosin, or immunostained with monoclonal antibodies to 8-hydroxy-deoxyguanosine (8-OHdG) (Oxis Research) or 4-hydroxynonenol (HNE) (Chemicon International, Temecula, Calif.) to detect DNA damage and lipid peroxidation, respectively. Prior to immunostaining, deparaffinized, re-hydrated sections were treated with 0.1 mg/ml saponin in phosphate buffered saline (10 mM sodium phosphate, 0.9% NaCl, pH 7.4; PBS) for 20 minutes at room temperature, followed by 3% hydrogen peroxide in methanol for 10 minutes to quench endogenous peroxidase activity, and then 30 minutes in SuperBlock-TBS (Pierce Chemical Co., Rockford, Ill.) at room temperature to block non-specific binding sites. The sections were incubated overnight at 4° C. with 0.5-1 μg/ml of primary antibody. Immunoreactivity was detected with biotinylated secondary antibody, avidin biotin horseradish peroxidase complex (ABC) reagents, and diaminobenzidine as the chromogen (Vector Laboratories, Burlingame, Calif.) (Lam et al. J. Biol. Chem. 269:20648 (1994)). The tissue sections were counterstained with hematoxylin and examined by light microscopy.
# [6] = tested on: cerebellar cortex; conditions: rat, in vivo
# Excerpt: as §2, §3
# [7] = tested on: IGF-I receptor tyrosine kinase; conditions: cerebellar tissue, ethanol-exposed relative to control pups; normalized to receptor protein; not dose-dependent
# Experimental: (§4) Insulin or IGF-I receptor molecules were immunoprecipitated from individual 100 μg protein samples using rabbit polyclonal antibodies (1 μg/ml) and Protein A sepharose (Amersham-Pharmacia, Arlington Heights, Ill.) (Ausubel et al, (2002) Current Protocols in Molecular Biology. John Wiley & Sons New York). Receptor tyrosine kinase activity was measured in the immune precipitates using a non-isotopic assay (Chemicon International, Temecula, Calif.) according to the manufacturer's protocol with small modifications. Briefly, tyrosine phosphorylation of the biotinylated synthetic peptide substrate captured onto streptavidin-coated wells was detected with horseradish peroxidase conjugated anti-phospho-tyrosine and SuperSignal West Pico chemiluminescent substrate (Pierce Chemical Co., Rockford, Ill.). Luminescence was measured in a TopCount machine (Packard Instrument Co., Meriden, Conn.). […]
# (§5) Studies were done to characterize the degree to which ethanol-associated impairments in receptor binding were associated with reductions in insulin and IGF-I receptor tyrosine kinase activities, and insulin and IGF-I receptor protein expression. Receptor protein levels were measured by Western blotting with digital image densitometry.
# [8] = tested on: insulin receptor tyrosine kinase; conditions: cerebellar tissue, ethanol-exposed relative to control pups; normalized to receptor protein; not dose-dependent
# Experimental: as §4, §5
# [9] = tested on: cerebellar membrane cholesterol content; conditions: 8% ethanol diet group, pups
# Experimental: Cholesterol content was measured using the Amplex Red assay kit (Molecular Probes, Eugene, Oreg.) according to the manufacturer's protocol. […] Briefly, tissue homogenates were prepared in RIPA buffer as described above. Samples, serially diluted in 1× reaction buffer (provided with the kit), were incubated with 150 μM Amplex Red reagent, 1 U/ml horseradish peroxidase, 1 U/ml cholesterol oxidase, and 0.1 U/ml cholesterol esterase in final reaction volumes of 100 μl. Reactions were incubated at 37° C. for 30 minutes and fluorescence was measured in a Fluorocount microplate reader (Packard Instrument Co., Meriden, Conn.) (Ex 560 nm/Em 590 nm). A standard curve was simultaneously generated using a cholesterol standard provided with the kit. The levels of cholesterol were normalized to protein concentration in the samples.
structure (smiles),measurement,setting,value
CCO [ethanol],impairment of IGF-I receptor binding,[1],~80%
same,AChE mRNA expression,[2],increases
same,ChAT mRNA expression,[3],significant reductions
same,impairment of insulin receptor binding,[4],~80%
same,8-OHdG immunoreactivity (DNA damage),[5],only detected in scattered cells
same,HNE immunoreactivity (lipid peroxidation),[5],conspicuously increased cellular labeling
same,structural abnormalities in the cerebellar cortex,[6],loss of Purkinje cells and reduced densities of cells within the internal granule layer
same,IGF-I receptor tyrosine kinase activity,[7],significantly reduced
same,insulin receptor tyrosine kinase activity,[8],significantly reduced
same,reduction of cerebellar membrane cholesterol content relative to control,[9],~50%
